Reference: PubChem BioAssay AID1259407 (Chemical Carcinogenesis Research Information System (CCRIS), 2018)
Calls of active or inactive are those of the source. No rule for the calls is given here.

System: CCRIS mutagenicity, Ames/micronucleus/aberration tests
Assay: CCRIS mutagenicity studies

Measured: mutagenic call

COc1ccc(C=O)cc1OC
inactive: Test System: AMES SALMONELLA TYPHIMURIUM, Strain/Indicator: TA98, Metabolic Activation: HAMSTER, LIVER, S-9, AROCLOR 1254 (10%), Method: PREINCUBATION inactive; negative | Test System: AMES SALMONELLA TYPHIMURIUM, Strain/Indicator: TA98, Metabolic Activation: NONE, Method: PREINCUBATION inactive; negative | Test System: AMES SALMONELLA TYPHIMURIUM, Strain/Indicator: TA98, Metabolic Activation: NONE, Method: STANDARD PLATE inactive; negative | Test System: AMES SALMONELLA TYPHIMURIUM, Strain/Indicator: TA98, Metabolic Activation: RAT, LIVER, S-9, AROCLOR 1254 (10%), Method: PREINCUBATION inactive; negative | Test System: AMES SALMONELLA TYPHIMURIUM, Strain/Indicator: TA100, Metabolic Activation: HAMSTER, LIVER, S-9, AROCLOR 1254 (10%), Method: PREINCUBATION inactive; negative | Test System: AMES SALMONELLA TYPHIMURIUM, Strain/Indicator: TA100, Metabolic Activation: NONE, Method: PREINCUBATION inactive; negative | Test System: AMES SALMONELLA TYPHIMURIUM, Strain/Indicator: TA100, Metabolic Activation: NONE, Method: STANDARD PLATE inactive; negative | Test System: AMES SALMONELLA TYPHIMURIUM, Strain/Indicator: TA100, Metabolic Activation: RAT LIVER S-9, AROCLOR 1254, Method: PREINCUBATION inactive; negative | Test System: AMES SALMONELLA TYPHIMURIUM, Strain/Indicator: TA100, Metabolic Activation: RAT, LIVER, S-9, AROCLOR 1254 (10%), Method: PREINCUBATION inactive; negative | Test System: AMES SALMONELLA TYPHIMURIUM, Strain/Indicator: TA102, Metabolic Activation: NONE, Method: PREINCUBATION inactive; negative | Test System: AMES SALMONELLA TYPHIMURIUM, Strain/Indicator: TA102, Metabolic Activation: RAT LIVER S-9, AROCLOR 1254, Method: PREINCUBATION inactive; negative | Test System: AMES SALMONELLA TYPHIMURIUM, Strain/Indicator: TA104, Metabolic Activation: NONE, Method: PREINCUBATION inactive; negative | Test System: AMES SALMONELLA TYPHIMURIUM, Strain/Indicator: TA104, Metabolic Activation: RAT LIVER S-9, AROCLOR 1254, Method: PREINCUBATION inactive; negative | Test System: AMES SALMONELLA TYPHIMURIUM, Strain/Indicator: TA1535, Metabolic Activation: HAMSTER, LIVER, S-9, AROCLOR 1254 (10%), Method: PREINCUBATION inactive; negative | Test System: AMES SALMONELLA TYPHIMURIUM, Strain/Indicator: TA1535, Metabolic Activation: NONE, Method: PREINCUBATION inactive; negative | Test System: AMES SALMONELLA TYPHIMURIUM, Strain/Indicator: TA1535, Metabolic Activation: RAT, LIVER, S-9, AROCLOR 1254 (10%), Method: PREINCUBATION inactive; negative | Test System: AMES SALMONELLA TYPHIMURIUM, Strain/Indicator: TA1537, Metabolic Activation: HAMSTER, LIVER, S-9, AROCLOR 1254 (10%), Method: PREINCUBATION inactive; negative | Test System: AMES SALMONELLA TYPHIMURIUM, Strain/Indicator: TA1537, Metabolic Activation: NONE, Method: PREINCUBATION inactive; negative | Test System: AMES SALMONELLA TYPHIMURIUM, Strain/Indicator: TA1537, Metabolic Activation: RAT, LIVER, S-9, AROCLOR 1254 (10%), Method: PREINCUBATION inactive; negative | Test System: E. COLI, Strain/Indicator: CM561 LEXA, Metabolic Activation: NONE, Method: STANDARD PLATE inactive; negative | Test System: E. COLI, Strain/Indicator: CM611 UVRA/LEXA, Metabolic Activation: NONE, Method: STANDARD PLATE inactive; negative | Test System: E. COLI, Strain/Indicator: WP2 UVRA, Metabolic Activation: NONE, Method: STANDARD PLATE inactive; negative
